System: Rattus norvegicus
Conditions: oral
[1] = short-term, duration: 28 days, gavage, F, Sprague-Dawley
[2] = short-term, duration: 28 days, gavage, M, Sprague-Dawley
[3] = subchronic, duration: 90 days, gavage, M/F, Wistar, Clinical Observation: Salivation + Body Weight Changes: Weight gain decrease + Food Consumption: decrease + Urinalysis: Ket increase, …
[4] = subchronic, gavage, M, Sprague-Dawley, Relative Organ Weight: Liver increase
[5] = chronic, duration: 91 days, gavage, M/F, Wistar, Blood Chemistry: Ca increase, TP increase, Glob increase, TG increase, Glu decrease + Absolute Organ Weight: Liver increase, Kidney increase…

O=C(Nc1ccccc1)c1cc2ccccc2cc1O [3-Hydroxy-2-naphthanilide]
NOAEL [1]: 1000 mg/kg-day | NOEL [1]: 1000 mg/kg-day | NOAEL [2]: 1000 mg/kg-day | NOEL [2]: 1000 mg/kg-day | NOEL (subchronic, gavage, Sprague-Dawley): 1000 mg/kg-day

CC(C)(C)S [t-Butyl mercaptan]
NOEL (subchronic, gavage, M, CD(SD), Clinical Observation: Salivation + Body Weight Changes: decrease + Food Consumption: decrease + Hematology: RBC decrease, HGB decrease, HCT …): < 10 mg/kg-day | NOEL (subchronic, gavage, M, Sprague-Dawley, Body Weight Changes: decrease200 + Hematology: MCHC decrease, APTT increase, RBC decrease, Hgb decrease, Hct decrease, Plt increase, PT …): < 10 mg/kg-day

CC(=O)CCC=C(C)C [6-Methyl-5-hepten-2-one]
NOAEL [3]: 50 mg/kg-day | NOEL [3]: < 50 mg/kg-day

C=CC(=O)OCCCCCCCCCCCC [Lauryl acrylate]
NOAEL [4]: 1000 mg/kg-day | NOEL [4]: 300 mg/kg-day

Clc1ccccc1NNc1ccccc1Cl [1,2-Bis(2-chlorophenyl)hydrazine]
NOEL (subchronic, gavage, M, Sprague-Dawley, Body Weight Changes: decrease(trend) + Hematology: Hgb decrease, RET increase(trend) + Blood Chemistry: T-CHO increase(trend) + Relative …): 40 mg/kg-day

N#Cc1ccccc1Cl [2-Chlorobenzonitrile]
NOEL (subchronic, gavage, M, Sprague-Dawley, Urinalysis: Ketone body increase + Hematology: APTT increase + Blood Chemistry: Cho increase, PL increase, ALT increasegamma-GTP increase, …): 10 mg/kg-day

COc1cc(COC(=O)CCCCCCC(C)C)ccc1O [Dihydrocapsiate]
NOEL (subchronic, gavage, M/F, Crj:CD, Blood Chemistry: ALT increase, Ca increase, Alb increase, TP increase + Absolute Organ Weight: Liver increase + Relative Organ Weight: Liver…): 300 mg/kg-day

CC(C)(Sc1cc(C(C)(C)C)c(O)c(C(C)(C)C)c1)Sc1cc(C(C)(C)C)c(O)c(C(C)(C)C)c1 [Probucol]
NOAEL (chronic, duration: 91 days, gavage, Sprague-Dawley): > 2250 mg/kg-day

C=CCCCCCC [1-Octene]
NOEL (subchronic, duration: 90 days, gavage, M/F, Urinalysis: Volume increase + Blood Chemistry: Cl decrease, CRE increase + Absolute Organ Weight: Kidney increase + Relative Organ Weight: …): 50 mg/kg-day

c1ccc(P(c2ccccc2)c2ccccc2)cc1 [Triphenylphosphine]
NOAEL [5]: 60 mg/kg-day | NOEL [5]: 6 mg/kg-day

CCCOCCOCCO [2-(2-Propoxyethoxy)ethanol]
NOAEL (subchronic, duration: 6 weeks, gavage, M, COBS, CD:BR, Clinical Observation: Narcosis(initial period only) + Body Weight Changes: Terminal body weight decrease + Food Consumption: decrease(day 3 …): 814 mg/kg-day

O=Cc1ccc(Cl)cc1 [4-Chlorobenzaldehyde]
NOEL (short-term, duration: 28 days, gavage, F, Sprague-Dawley, Clinical Observation: Salivation Tremor Soiled perigenital fur + Functional Observational Battery: Motor activity decrease + Body Weight …): 40 mg/kg-day | NOEL (short-term, duration: 28 days, gavage, M, Sprague-Dawley, Clinical Observation: Salivation Tremor Soiled perigenital fur + Functional Observational Battery: Motor activity decrease + Body Weight …): 200 mg/kg-day

O=C(O)c1ccc([N+](=O)[O-])cc1 [4-Nitrobenzoic acid]
NOEL (subchronic, duration: 13 weeks, diet, F, Fischer 344, Body Weight Changes: decrease + Hematology: Methemoglobin increase, Hct decrease, ,Hgb decrease, RBC decrease, Heinz body increase + Blood …): 40 mg/kg-day | NOEL (subchronic, duration: 13 weeks, diet, M/F, Fischer 344, Body Weight Changes: decrease + Hematology: Methemoglobin increase, Hct decrease, ,Hgb decrease, RBC decrease, Heinz body increase + Blood …): < 60.5 mg/kg-day

Nc1ccc(S(N)(=O)=O)cc1 [Sulfanilamide]
NOEL (short-term, duration: 28 days, gavage, M/F, Sprague-Dawley, Clinical Observation: Salivation + Functional Observational Battery: Auditory response decrease, Disappearance, aerial righting reflex …): 50 mg/kg-day

C=C(C)C(=O)NCCN1CCNC1=O [2-Methyl-N-[2-(2-oxoimidazolidin-1-yl)ethyl]prop-2-enamide]
NOEL (short-term, duration: 28 days, gavage, M/F, Deaths + Clinical Observation: Salivation Abnormal breathing + Relative Organ Weight: Kidney increase + Necropsy: Stomach- Raised, limiting…): 200 mg/kg-day

C=CCOC(=O)CC(C)C [Allyl isovalerate]
NOEL (subchronic, duration: 13 weeks, gavage, M/F, Fischer 344, Deaths + Body Weight Changes: decrease + Histopathology: Liver-Basophilic cytoplasmic change Liver-Multifocal coagulative necrosis Liver-…): 31 mg/kg-day

CCCCCc1cc(O)c2c(c1)OC(C)(C)[C@@H]1CCC(C)=C[C@@H]21 [Tetrahydrocannabinol]
NOEL (subchronic, duration: 13 weeks, gavage, M/F, Fischer 344, Deaths: Administration groups for 13 weeks(1/10 )(2/10 )(6/10 /10 ) + Clinical Observation: Convulsion Aggressive behavior: Dose is unknown …): < 5 mg/kg-day

Nc1cc(Cl)ccc1O [2-Amino-4-chlorophenol]
NOEL (subchronic, gavage, M, Sprague-Dawley, Hematology: RBC decrease, Hgb decrease, MCHC decrease, Ret increase, Hct decrease + Absolute Organ Weight: Spleen increase + Relative Organ …): 50 mg/kg-day

Source: EPA's ToxValDB 9.5
